Measurements taken from article PMC6925188, “PBRM1 acts as a p53 lysine-acetylation reader to suppress renal tumor growth” (Nature Communications, 2019).

System: ACHN cells
Experiment: Cell cycle analysis, ACHN shRNA knockdown cells
Type: cell-based
Design: Sub-G1: unit not given here
Details: 50 μM
Method: Lysates were analyzed via immunoblots. f, g, h. ACHN control, p53 and p21 shRNA knockdown cells were harvested for […]
Representative data is shown i n g. […] Source data are provided as a Source

## COc1cc([C@@H]2c3cc4c(cc3[C@@H](O[C@@H]3O[C@@H]5CO[C@@H](C)O[C@H]5[C@H](O)[C@H]3O)[C@H]3COC(=O)[C@H]23)OCO4)cc(OC)c1O [Etoposide]
ACHN-sh-PBRM1#1, assay 1
  G0/G1: 10.9
  G2/M: 66.9
  S: 15.8
  Sub-G1: 5.5
ACHN-sh-PBRM1#1, assay 2
  G0/G1: 15.3
  G2/M: 36.8
  S: 33.9
  Sub-G1: 12.3
ACHN-sh-PBRM1#1, assay 3
  G0/G1: 16.9
  G2/M: 39.4
  S: 35.3
  Sub-G1: 6.8
ACHN-sh-PBRM1#2, assay 1
  G0/G1: 50.7
  G2/M: 29.4
  S: 17.3
  Sub-G1: 1.2
ACHN-sh-PBRM1#2, assay 2
  G0/G1: 45.9
  G2/M: 20.7
  S: 26.7
  Sub-G1: 5
ACHN-sh-PBRM1#2, assay 3
  G0/G1: 48.7
  G2/M: 22.6
  S: 24.8
  Sub-G1: 1.6
ACHN-sh-SCR, assay 1
  G0/G1: 54.8
  G2/M: 26.5
  S: 16.1
  Sub-G1: 1.5
ACHN-sh-SCR, assay 2
  G0/G1: 51.3
  G2/M: 21.3
  S: 25.2
  Sub-G1: 1.4
ACHN-sh-SCR, assay 3
  G0/G1: 43.6
  G2/M: 27
  S: 25.3
  Sub-G1: 2.1
ACHN-sh-p21#1, assay 1
  G0/G1: 40.5
  G2/M: 38.3
  S: 18.7
  Sub-G1: 1.3
ACHN-sh-p21#1, assay 2
  G0/G1: 47.7
  G2/M: 23.1
  S: 27.2
  Sub-G1: 1
ACHN-sh-p21#1, assay 3
  G0/G1: 48.6
  G2/M: 22.6
  S: 26
  Sub-G1: 0.8
ACHN-sh-p21#2, assay 1
  G0/G1: 14.3
  G2/M: 65.7
  S: 15.1
  Sub-G1: 4
ACHN-sh-p21#2, assay 2
  G0/G1: 11.9
  G2/M: 48.4
  S: 31.1
  Sub-G1: 6.9
ACHN-sh-p21#2, assay 3
  G0/G1: 14.7
  G2/M: 42.4
  S: 35.8
  Sub-G1: 5.3
ACHN-sh-p53, assay 1
  G0/G1: 6.3
  G2/M: 68.3
  S: 16.5
  Sub-G1: 6.2
ACHN-sh-p53, assay 2
  G0/G1: 11.6
  G2/M: 30
  S: 34.2
  Sub-G1: 20.3
ACHN-sh-p53, assay 3
  G0/G1: 10.6
  G2/M: 39
  S: 34.6
  Sub-G1: 11.3
